The values below come from US10780067B2, “Endoxifen for local transdermal therapy to the breast” (Northwestern University, priority 2016, dated 2020).

Series [1] can be described thus: Plasma, breast adipose tissue and NAF concentrations of tamoxifen and its metabolites (LC-MS/MS), presurgical trial. The format is in vivo, human. As to conditions: in vivo. An excerpt: All participants provided informed consent. Baseline assessments included a history and physical, explanation of gel application, completion of the Breast Cancer Prevention Trial Eight Symptom Scale (BESS) questionnaire, collection of a venous blood sample, and collection of nipple aspirate fluid (NAF) from NAF yielders. […] Treatment began within 5 days post-randomization and ended on the day prior to surgical resection. Participants were instructed to apply the gel to the entire skin envelope of each breast each morning, after a shower. Duration of therapy was 6-10 weeks. Compliance was assessed through participant diaries, counts of returned pills and of returned gel canisters. Participants who took at least 80% of the prescribed dose were considered compliant.
Assessments similar to those performed at baseline were repeated on the day prior to, or on the morning of surgery. During surgery, breast adipose tissue from the surgical sample was snap frozen and stored at −80° C. for measurement of tamoxifen and metabolites. The samples were obtained from a location adjacent to the DCIS lesion to provide uniformity between participants undergoing breast conservation and mastectomy. The paraffin block of the core and excision samples were acquired by the recruiting institution and 10 sections from each specimen were submitted to the NU Pathology Core Facility. The sections were cut in batches (with pre- and post-treatment samples in the same batch), shipped cold, and processed for immunohistochemistry within four weeks.
(Z)-tamoxifen, (Z)-NDT, (E) and (Z)-4-OHT, and (Z)-endoxifen were measured by liquid chromatography-tandem mass spectrometry with a turbo ion spray interface operating in positive mode (API 3000; AB SCIEX, Foster City, Calif.). […] For analysis of NAF, samples were collected in a capillary tube and diluted with 200 μL of phosphate buffered saline; 100 μL of the diluted NAF sample was used for analysis. Breast adipose tissue samples, 25 mg, were minced and treated with 125 μL of […] and extracted as described above.
Retention times for (Z)-tamoxifen, (Z)-NDT, (Z)-4-OHT, (E)-4-OHT and (Z)-endoxifen were 7.3, 6.8, 5.1, 4.7 and 4.5 min, respectively. […] In three participants, matched samples were not available: breast adipose tissue was not collected in two, and the plasma sample was missing in one.
Since the fraction of E and Z isoforms of 4-OHT was of particular interest, we used an additional validated method to study plasma concentrations of these metabolites in a different laboratory (Eurofins Medinet, Chantilly, Va.): Plasma from blood samples collected in lithium-heparin tubes was frozen at −20° C., shipped in batches on dry ice to them Eurofins Medinet central laboratory; LC-MS/MS was used for the simultaneous determination of (E) 4-OHT and (Z) 4-OHT, with a lower limit of quantitation (LOQ) of 10 pg/mL and upper LOQ of 10,000 pg/mL. Eurofins Medinet developed and validated them method for BHR Pharma, in accordance with the FDA Guidance on Bioanalytical Method Validation.

The subject of series [2] is MCF-7 xenograft. Conditions: dose of 2-8 mg/kg; cited from earlier work.
For series [3] the following is noted: alcoholic solution of ENX 0.2 mg/mL with 0.5% oleic acid; cited from earlier work.
Series [4] addresses T1, ERα (Homo sapiens, UniProt P03372).
T1 sequence (P03372 1-595): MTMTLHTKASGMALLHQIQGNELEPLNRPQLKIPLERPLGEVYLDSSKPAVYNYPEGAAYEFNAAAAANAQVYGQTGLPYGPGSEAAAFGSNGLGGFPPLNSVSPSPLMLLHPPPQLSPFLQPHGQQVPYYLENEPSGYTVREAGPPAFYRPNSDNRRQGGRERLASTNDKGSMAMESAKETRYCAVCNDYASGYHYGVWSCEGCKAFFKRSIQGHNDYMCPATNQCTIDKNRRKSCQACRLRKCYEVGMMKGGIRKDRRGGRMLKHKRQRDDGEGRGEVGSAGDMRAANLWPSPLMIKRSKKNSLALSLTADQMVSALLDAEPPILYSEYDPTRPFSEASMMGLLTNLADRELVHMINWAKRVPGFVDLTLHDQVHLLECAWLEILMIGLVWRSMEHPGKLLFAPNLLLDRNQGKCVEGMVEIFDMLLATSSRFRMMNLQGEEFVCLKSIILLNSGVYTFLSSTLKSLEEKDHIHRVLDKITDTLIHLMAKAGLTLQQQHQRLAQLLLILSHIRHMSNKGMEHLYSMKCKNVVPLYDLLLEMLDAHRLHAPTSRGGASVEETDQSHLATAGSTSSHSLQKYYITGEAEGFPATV
Conditions: cited from earlier work.

Series [5] has as its target ERβ (Homo sapiens, UniProt Q92731). As to conditions: cited from earlier work.
Series [6] concerns MCF7 xenograft. Conditions: MCF7 xenograft bearing mice, cited from earlier work.
The subject of series [7] is MCF7 xenograft. Conditions: simulation using human PK; cited from earlier work.
For series [8] the following is noted: oral dose of 160 mg daily; cited from earlier work.
The conditions of series [9]: female, human, in vivo, 72 h.
Method: (§1) Nonpregnant women scheduled for mastectomy to prevent or treat breast cancer were recruited through the Lynn Sage Comprehensive Breast Center of Northwestern Medicine. All participants were randomized to patch application to one surgical breast (per participant) or the abdominal skin. The diclofenac patch (Flector® patch, 10 cm×14 cm) is a semi-occlusive, bioadhesive patch containing 129.7 mg of diclofenac acid. After baseline evaluation, the participants were instructed on site of patch application and to replace patch every 12 h over 72 h prior to surgery.
(§2) The breast group wore the patch over the upper outer breast, with the lower inner corner of the patch at the level of the nipple (FIG. 3b). The abdominal group wore the patch on the lower abdomen on the side opposite the planned mastectomy (FIG. 3a). Participants were assessed for baseline signs/symptoms and then by telephone the second day of the treatment and on the day of surgery. All adverse events were coded using the NCI Common Terminology Criteria for Adverse Events version 4.0.
(§3) On the day of surgery, the transdermal patch was removed in the operating room prior to anesthesia and 30 mL venous blood was collected with anticoagulant K2EDTA (BD Vacutainer®, BD Hemogard™ product no. 366643). Tissue samples from the mastectomy specimen were obtained from eight predetermined locations of one breast per participant (FIG. 3b), four central/periareolar and four peripheral samples 5 cm away, at 12, 3, 6, and 9 O'clock. Each tissue sample was weighed and snap-frozen in liquid nitrogen and kept in −80° C. until analysis.
(§4) Formalin-fixed, paraffin-embedded (FFPE) samples were taken from locations adjacent to the drug assay samples, for histological evaluation of tissue composition, and were available from all subjects.
(§5) The concentrations of all the drugs used in rats and humans were determined by liquid chromatography-tandem mass spectroscopy (API 3000; AB SCIEX, Foster City, Calif., USA). […] The mobile phase was A: 0.1% formic acid in water (v/v) and B: 0.1% formic acid in acetonitrile (v/v). […] The lowest limits of quantification (LLOQ) were as follow: tamoxifen and N-desmethyl tamoxifen (NDT) (plasma 10 ng/mL; tissue 40 ng/g); 4-OHT and endoxifen (plasma 0.5 ng/mL; tissue 2 ng/g); telapristone and N-desmethyl telapristone (d-telapristone) (plasma 1 ng/mL; tissue 1.5 ng/g); and diclofenac (plasma 0.5 ng/mL; tissue 2 ng/g).
(§6) The medians and IQR's were reported for diclofenac concentrations by breast region and patch groups (Table 9). To compare breast concentrations by site of patch application, we replaced non-detectable values with “zero” and considered the median concentration from eight samples as the representative breast concentration per individual for statistical purposes. The Wilcoxon rank-sum test was used to assess median concentration differences between patch groups, among regions of the breast, and by menopausal status within each treatment group.
(§7) Diclofenac was determined by LC-MS/MS (API 3000; AB SCIEX, Foster City, Calif.).
Series [10] in a line: clinical. As to conditions: female, human, in vivo.
Method: as §1, §2, §3, §4, §5, §6, §7

What is called TGI is how far tumour growth fell short of that in controls.

ERβ, sequence (Q92731 whole entry): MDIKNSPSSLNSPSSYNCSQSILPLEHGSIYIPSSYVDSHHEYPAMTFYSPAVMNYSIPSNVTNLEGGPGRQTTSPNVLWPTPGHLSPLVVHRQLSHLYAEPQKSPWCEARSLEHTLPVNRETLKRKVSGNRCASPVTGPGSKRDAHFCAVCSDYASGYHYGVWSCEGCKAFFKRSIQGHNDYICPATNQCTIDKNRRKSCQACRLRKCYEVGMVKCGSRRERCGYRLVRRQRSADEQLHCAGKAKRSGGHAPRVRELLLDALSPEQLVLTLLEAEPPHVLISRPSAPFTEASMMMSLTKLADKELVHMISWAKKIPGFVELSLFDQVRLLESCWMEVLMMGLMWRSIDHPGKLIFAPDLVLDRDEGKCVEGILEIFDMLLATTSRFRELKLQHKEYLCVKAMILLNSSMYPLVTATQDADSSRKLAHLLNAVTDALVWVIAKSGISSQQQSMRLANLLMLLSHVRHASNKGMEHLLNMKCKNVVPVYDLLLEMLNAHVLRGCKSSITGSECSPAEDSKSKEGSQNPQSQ

For 4-hydroxytamoxifen [4-OHT gel], in [1], the “NAF concentration of NDT, individual participants” value is reported as “undetectable”; the “NAF concentration of endoxifen” value was “undetectable”; the “NAF concentration of tamoxifen, individual participants” value was “undetectable”; the “participants with 4-OHT detectable in breast tissue” value is 9 of 10. Also, the “participants with 4-OHT detectable in plasma” value in series [1] worked out at 5. Besides, the “breast adipose tissue concentrations of (Z) 4-OHT (discussion)” value in series [1] (po) is “over 5 ng/mg”.
As for `CC/C(=C(\c1ccc(O)cc1)c1ccc(OCCNC)cc1)c1ccccc1.O=C(O)CC(O)(CC(=O)O)C(=O)O` [ENX citrate], the “efficacy against MCF-7 xenograft model” value in series [2] is reported as “shows efficacy”.
For `CC/C(=C(\c1ccc(O)cc1)c1ccc(OCCNC)cc1)c1ccccc1` [Endoxifen, N-desmethyl-4-hydroxytamoxifen], the “in vitro human skin penetration” value in [3] is “penetrates human skin efficiently”. Besides, the “binding affinity for ERα relative to TAM” value in [4] was 25 fold. The “binding affinity for ERβ relative to TAM” value in series [5] is 56 fold. For the same molecule, in series [6], the “Cstasis (plasma ENX showing 100% TGI)” value was 53 nM. In addition, the “KC50 of plasma ENX” value in series [6] (tumor growth inhibition, oral ENX) is given as 14 nM. Moreover, in series [7], the “TGI at day 21, 0.5 mg/day oral” value is given as 67%; the “TGI at day 21, 1 mg/day oral” value is reported as 87%; the inhibition of tumour growth (TGI) at day 21, 4 mg/day oral is 97%. The MTT entry in [8] is on record as “not reached”.
`O=C(O)Cc1ccccc1Nc1c(Cl)cccc1Cl` [diclofenac]: the “diclofenac breast concentration, abdominal patch, All locations” value in series [9] is reported as 0.13 (0.00, 0.37) ng/g tissue. The “diclofenac breast concentration, abdominal patch, sampling location 6” value in series [9] is on record as 0.04 (0.00, 0.48) ng/g tissue. The “diclofenac breast concentration, breast patch, All locations” value in series [9] is reported as 0.77 (0.23, 2.97) ng/g tissue. Further, in series [9], the “diclofenac breast concentration, breast patch, sampling location 6” value is 0.31 (0.00, 1.23) ng/g tissue. In addition, in series [9], the “diclofenac plasma concentration, abdominal patch” value is 1.06 (0.81, 1.88) ng/mL. Moreover, the “diclofenac plasma concentration, breast patch” value in series [9] is 1.02 (0.71, 1.78) ng/mL. The “tissue samples with detectable diclofenac, abdominal group” value in [9] was determined as 58%. Besides, in [9], the “tissue samples with detectable diclofenac, breast group” value was determined as 79%. Further, the concentration at 72 h turned out to be 0.13 ng/g in series [10] (diclofenac breast concentration, abdominal patch, All locations); 0 ng/g in series [10] (diclofenac breast concentration, abdominal patch, sampling location 1); 0.18 ng/g in [10] (diclofenac breast concentration, abdominal patch, sampling location 2); 0.2 ng/g in [10] (diclofenac breast concentration, abdominal patch, sampling location 3); 0.19 ng/g in [10] (diclofenac breast concentration, abdominal patch, sampling location 4); 0.11 ng/g in [10] (diclofenac breast concentration, abdominal patch, sampling location 5). Besides, the concentration at 72 h in series [10] (diclofenac breast concentration, abdominal patch, sampling location 6) was 0.04 ng/g; in series [10] (diclofenac breast concentration, abdominal patch, sampling location 7), 0.14 ng/g; in series [10] (diclofenac breast concentration, abdominal patch, sampling location 8), 0.08 ng/g; in [10] (diclofenac breast concentration, breast patch, All locations), 0.77 ng/g; in series [10] (diclofenac breast concentration, breast patch, sampling location 1), 0.63 ng/g; in series [10] (diclofenac breast concentration, breast patch, sampling location 2), 0.64 ng/g. The concentration at 72 h in series [10] (diclofenac breast concentration, breast patch, sampling location 3) was 0.48 ng/g; in series [10] (diclofenac breast concentration, breast patch, sampling location 4), 1.64 ng/g; in series [10] (diclofenac breast concentration, breast patch, sampling location 5), 1.98 ng/g; in series [10] (diclofenac breast concentration, breast patch, sampling location 6), 0.31 ng/g; in series [10] (diclofenac breast concentration, breast patch, sampling location 7), 1.12 ng/g; in [10] (diclofenac breast concentration, breast patch, sampling location 8) it was 0.58 ng/g. The concentration at 72 h in series [10] (diclofenac plasma concentration, abdominal patch) stood at 1.06 ng/mL; in series [10] (diclofenac plasma concentration, breast patch) it was 1.02 ng/mL; in series [10] (median breast concentration of diclofenac with IQR, fatty samples), 8.71 ng/g; in [10] (median breast concentration of diclofenac with IQR, fibrous samples), 0.19 ng/g; in series [10] (median breast concentration of diclofenac with IQR, mixed samples), 0.52 ng/g; in series [10] (median diclofenac breast concentration, abdominal group, medium-sized breasts), 0.21 ng/g. For the same molecule, the concentration at 72 h in series [10] (median diclofenac breast concentration, abdominal group, small breasts) is 0.6 ng/g; in series [10] (median diclofenac breast concentration, breast group, medium-sized breasts), 1.31 ng/g; in series [10] (median diclofenac breast concentration, breast group, small breasts) it was 1.12 ng/g; in [10] (median diclofenac concentration, central locations (1 through 4), abdominal group) it was 0.85 ng/g; in [10] (median diclofenac concentration, central locations (1 through 4), breast group), 4.91 ng/g; in series [10] (median diclofenac concentration, peripheral locations (5 through 8), abdominal group), 0.75 ng/g. Besides, the concentration at 72 h in series [10] (median diclofenac concentration, peripheral locations (5 through 8), breast group) is 9.92 ng/g; in series [10] (range of diclofenac concentrations in tissue samples of three women, abdominal group) it was 1.2 to 4.8 ng/g.
